In article PMC10498722 (Chemical Science, 2023):

Assays:
[1] = molecular target: T1, glutathione peroxidase 4 (GPX4) (Homo sapiens, UniProt P36969); assay: GPX4 inhibitor screening assay kit; assay type: biochemical
T1 sequence (P36969 28-197): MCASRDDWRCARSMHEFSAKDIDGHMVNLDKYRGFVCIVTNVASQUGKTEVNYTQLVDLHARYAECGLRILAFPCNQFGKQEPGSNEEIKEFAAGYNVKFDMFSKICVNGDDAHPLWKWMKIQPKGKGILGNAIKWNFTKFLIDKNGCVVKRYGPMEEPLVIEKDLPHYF

[2] = molecular target: T1, glutathione peroxidase 4 (GPX4); assay: GPX4 assay kit; assay type: biochemical; conditions: read-out: % enhancement at 100 μM

| Structure (SMILES) | IC50 [1] | activation at 100 µM [2] |
| --- | --- | --- |
| COC(=O)c1ccc([C@H]2c3[nH]c4ccccc4c3C[C@H](C(=O)OC)N2C(=O)CCl)cc1 [RSL3] | 17.17 ± 0.17 µM | – |
| O=C(OC[C@H]1O[C@@H](OC(=O)c2cc(O)c(O)c(OC(=O)c3cc(O)c(O)c(O)c3)c2)[C@H](OC(=O)c2cc(O)c(O)c(OC(=O)c3cc(O)c(O)c(O)c3)c2)[C@@H](OC(=O)c2cc(O)c(O)c(OC(=O)c3cc(O)c(O)c(O)c3)c2)[C@@H]1OC(=O)c1cc(O)c(O)c(OC(=O)c2cc(O)c(O)c(O)c2)c1)c1cc(O)c(O)c(OC(=O)c2cc(O)c(O)c(O)c2)c1 [TA, tannic acid] | – | 19% |
